Data on nine compounds can be found in patent US5679674A (priority 1992, dated 1997).

Where a name gives a salt, the structure may show the parent alone. Read-outs that look alike come from different tables or passages of the source.

Test [1] deals with p-Phenylquinone-induced agony (writhing response) in mice. In words: p-Phenylquinone-induced agony test in mice (oral administration). To be noted: Mus musculus, 0.25 h, read-out: Analgesic effect (Oral Administration) (ED50, mg/kg) Phenylquinone-induced agony test. The format is in vivo, Male ddy mice. The protocol:
p-Phenylquinone-induced agony test in mice (oral administration)
According to the method of Siegmund et al. [Proc. Soc. Exptl. Biol. Med., 95, 729 (1957)], the title test was conducted. Male ddy mice (Japan SLC) each weighing about 20 g were fasted for about 16 hours from the day before the test and divided into groups each including from 5 to 10 mice.
A compound to be tested was dissolved in 0.5% tragacanth and administered orally. After 15 minutes, each 0.1 ml/mouse of 0.03% p-phenylquinone solution was injected intraperitoneally. During 5 to 10 minutes after injection, the number of agony reactions (writhing response) observed in each mouse was counted. Those mice showing 1/2 or less of the mean value of the numbers of agony reactions observed in the control mice injected with only physiological saline were regarded as analgesic-effective animals.

The test system is the same in test [2]. In words: animal or person. The class given is in vivo, Male ddy mice. Particulars: Mus musculus, sc, 0.25 h, read-out: Analgesic effect (ED50, μg/kg sc) Phenylquinone-induced agony test.
Test [3] deals with T1, k-receptor (Cavia porcellus, UniProt P41144).
T1 construct: The whole brain of male Hertley guinea pigs (Japan SLC); from tissue; host or cells: crude membranes of guinea pig whole brain without cerebellum (Hartley, printed 'Hertley', males)
T1 sequence (P41144 whole entry): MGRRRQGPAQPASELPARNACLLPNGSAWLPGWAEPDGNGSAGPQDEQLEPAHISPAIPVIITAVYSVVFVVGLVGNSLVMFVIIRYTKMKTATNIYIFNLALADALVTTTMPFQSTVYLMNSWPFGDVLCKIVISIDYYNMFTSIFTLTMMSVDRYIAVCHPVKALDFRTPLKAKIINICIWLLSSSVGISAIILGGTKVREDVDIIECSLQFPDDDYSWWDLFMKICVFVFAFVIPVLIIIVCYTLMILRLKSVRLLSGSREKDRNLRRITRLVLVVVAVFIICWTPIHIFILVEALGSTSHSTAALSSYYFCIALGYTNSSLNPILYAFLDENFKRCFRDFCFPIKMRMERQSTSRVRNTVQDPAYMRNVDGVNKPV
Briefly: biochemical. The class given is binding, guinea pig.

Test [4] has as its target T2, μ-receptor (Cavia porcellus, UniProt A0ACM8Q262).
T2 construct: tritiated DAGO (DAMGO) displacement
Further details: species or system guinea pig. Particulars: read-out: Binding to the receptors (IC50, nM) μ.

[5] abbreviates: read-out: Binding to the receptors (IC50, nM) k.

The IC50 is the point on the concentration scale where inhibition reaches its midpoint.

T2 sequence (A0ACM8Q262 1-400): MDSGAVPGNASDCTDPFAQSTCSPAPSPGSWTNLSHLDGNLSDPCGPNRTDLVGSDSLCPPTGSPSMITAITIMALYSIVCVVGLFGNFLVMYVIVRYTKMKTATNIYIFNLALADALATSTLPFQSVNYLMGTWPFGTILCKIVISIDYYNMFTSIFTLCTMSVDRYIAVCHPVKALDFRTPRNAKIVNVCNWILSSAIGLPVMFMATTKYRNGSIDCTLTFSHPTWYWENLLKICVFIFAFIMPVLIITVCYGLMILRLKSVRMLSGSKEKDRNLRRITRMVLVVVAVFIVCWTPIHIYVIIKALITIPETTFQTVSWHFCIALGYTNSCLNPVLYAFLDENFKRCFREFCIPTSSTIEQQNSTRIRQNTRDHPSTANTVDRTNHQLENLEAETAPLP

For `O=C([C@H]1CCc2cc(Cl)c(Cl)cc21)N1CCSC[C@H]1CN1CCCC1` (relative stereo) [Racemate Corresponding to Compound of Example 1], the ED50 in test [1] worked out at 0.18 mg/kg.

As to `O=C1C[C@H](C(=O)N2CCSC[C@H]2CN2CCCC2)c2cc(Cl)c(Cl)cc21` (relative stereo) [Racemate Corresponding to Compound of Example 2], in test [1], the ED50 amounted to 0.79 mg/kg.

As for `O=C1CC[C@H](C(=O)N2CCSC[C@H]2CN2CCCCC2)c2cc(Cl)c(Cl)cc21` (relative stereo) [Racemate Corresponding to Compound of Example 3], in test [1], the ED50 turned out to be 1.22 mg/kg.

As for `O=C([C@@H]1CCc2cc(Cl)c(Cl)cc21)N1CCSC[C@H]1CN1CCCC1` [Corresponding (3R, 1R)], the ED50 in test [2] came out at 23900 µg/kg. In addition, the IC50 in test [3] (setting [5]) was 3500 nM; in test [4], 32000 nM.

On to `O=C([C@@H]1CCc2cc(Cl)c(Cl)cc21)N1CCSC[C@@H]1CN1CCCC1` [Corresponding (3S, 1R)], for which the ED50 in test [2] stood at 10900 µg/kg. The half-inhibitory concentration (IC50) in test [3] came out at 21000 nM; in test [4], 12000 nM.

In the case of `O=C([C@H]1CCc2cc(Cl)c(Cl)cc21)N1CCSC[C@@H]1CN1CCCC1` [Corresponding (3S, 1S)], the ED50 in test [2] turned out to be 7800 µg/kg. Further, the 50% inhibitory concentration (IC50) in test [3] was 920 nM; in test [4] it was 15000 nM.

As for `O=C([C@H]1CCc2cc(Cl)c(Cl)cc21)N1CCSC[C@H]1CN1CCCC1` [Example 1, (3R)-3-(1-Pyrrolidinylmethyl)-4-[(1S)-(5,6-dichloro-1-indanecarbonyl]thiomorpholine hydrochloride], the ED50 in test [2] stood at 1.3 µg/kg; in test [1], 0.011 mg/kg. Also, the results for the IC50 in test [3] (setting [5]) and in test [4] were 0.44 nM and 300 nM, respectively.

Regarding `O=C1C[C@H](C(=O)N2CCSC[C@H]2CN2CCCC2)c2cc(Cl)c(Cl)cc21` [Example 2, (3R)-3-(1-Pyrrolidinylmethyl)-4-[(1S)-3-oxo-5,6-dichloro-1-indanecarbonyl]thiomorpholine hydrochloride], the ED50 was determined as 0.6 µg/kg in test [2] and 0.031 mg/kg in test [1]. The IC50 in test [3] was determined as 0.46 nM; in test [4], 330 nM.

In the case of `O=C1CC[C@H](C(=O)N2CCSC[C@H]2CN2CCCCC2)c2cc(Cl)c(Cl)cc21` [Example 3, (3R)-3-(1-Piperidinylmethyl)-4-[(1S)-6,7-dichloro-4(3H)-oxo-1,2-dihydro-1-naphthoyl]thiomorpholine hydrochloride], the ED50 in test [2] turned out to be 13 µg/kg; in test [1], 0.29 mg/kg. The IC50 in test [3] (setting [5]) amounted to 1.7 nM; in test [4], 1800 nM.
